In one test the test system is NCI-H929. In words: Cell line IC50 (Table 3). Particulars: N-Ras, Myeloma. The class given is cell-based, human.
The subject of the next test is H292. In words: Cell line IC50 (Table 3). The settings on record: Lung. The class given is cell-based, human.
A further test has as its system MESSA. In words: Cell line IC50 (Table 3). Particulars: Ras WT, sarcoma. The class given is cell-based, human.
The next test relates to MDA-MB-436. The experiment in a line: Cell line IC50 (Table 3). Type of test: cell-based, human. The settings on record: Ras WT, Breast.
A further test concerns LoVo. In words: Cell line IC50 (Table 3). The class given is cell-based, human. The settings on record: K-Ras G13D, Colon.
Another test has as its system H1650. The experiment in a line: Cell line IC50 (Table 3). Type of test: cell-based, human. Particulars: Lung.
The subject of another test is Colo205. The experiment in a line: Cell line IC50 (Table 3). The class given is cell-based, human. Particulars: Colon.
Another test has as its system H2052. The experiment in a line: Cell line IC50 (Table 3). Type of test: cell-based, human. The settings on record: Mesothelioma.
A further test deals with A2780. The experiment in a line: Cell line IC50 (Table 3). The class given is cell-based, human. The settings on record: Ras WT, Ovary.
For another test, the system named is MCF7. The experiment in a line: Cell line IC50 (Table 3). Type of test: cell-based, human. The settings on record: Ras WT, Breast.
The next test has as its system cell lines of Table 3. In words: Cell line panel of Table 3, summary over cell lines. The class given is cell-based, human. The settings on record: median over the cell lines of Table 3.
Another test has as its system H358. The experiment in a line: Cell line IC50 (Table 3). Type of test: cell-based, human. Particulars: Lung.
The next test concerns NCI-H460. The experiment in a line: Cell line IC50 (Table 3). Type of test: cell-based, human. Particulars: K-Ras Q61H, Lung.
The test system of another test is A549. The experiment in a line: Cell line IC50 (Table 3). Type of test: cell-based, human. Particulars: K-Ras G12S, Lung.
The next test deals with Saos-2. In words: Cell line IC50 (Table 3). The class given is cell-based. The settings on record: Homo sapiens, Ras WT, Osteosarcoma.
The next test relates to HT-29. In words: Cell line IC50 (Table 3). Type of test: cell-based. The settings on record: Homo sapiens, Ras WT, Colon.
The test system of the next test is CDK. In words: CDK inhibitory profile. The class given is biochemical. Particulars: compared with roscovitine.
For a further test, the system named is LP-1. The experiment in a line: Cell line IC50 (Table 3). The class given is cell-based. The settings on record: Homo sapiens, Ras WT, Myeloma.
Another test deals with HCT 116. The experiment in a line: Cell line IC50 (Table 3). The class given is cell-based. The settings on record: Homo sapiens, K-Ras G13D, Colon.
Setting [1] is: Homo sapiens, NCI-H1650, Ras WT.
[2] abbreviates: Homo sapiens, NCI-H2052, Ras WT.
Setting [3] is: Homo sapiens, NCI-H358, K-Ras G12C.

Take `CC[C@H](Nc1nc(NCc2cnc(C)cc2C)c2ncn(C(C)C)c2n1)[C@@H](C)O` [Compound A]: the IC50 in the test on NCI-H929 is 400 nM; with H292 (Ras WT), 400 nM; with MESSA it was 200 nM; in the test with MDA-MB-436, 400 nM; in the test on LoVo, 700 nM; with H1650 (Ras WT) it was 500 nM. Also, the IC50 came out at 300 nM with Colo205 (Ras WT); 300 nM with H2052 (Ras WT); 400 nM with A2780; 300 nM with MCF7; 400 nM in the test on cell lines of Table 3; 200 nM in the test on H358 (K-Ras G12C). Moreover, the values for the IC50 in the test with NCI-H460 and with A549 were 500 nM and 200 nM, respectively.
Consider `CC[C@@H](Nc1nc(NCc2cccnc2)c2ncn(C(C)C)c2n1)C(C)(C)O` [Compound B, (3R)-3-{9-isopropyl-6-[(pyridin-3-ylmethyl)-amino]-9H-purin-2-ylamino}-2-methyl-pentan-2-ol], for which the IC50 in the test on Saos-2 came out at 5300 nM; in the test with NCI-H929 (Homo sapiens), 5200 nM; in the test on H292 (Homo sapiens, NCI-H292, Ras WT) it was 6600 nM; in the test with MESSA (Homo sapiens, MES-SA), 3600 nM; with MDA-MB-436 (Homo sapiens), 6600 nM; in the test with LoVo (Homo sapiens), 4500 nM. In addition, the IC50 in the test on H1650 (setting [1]) turned out to be 6500 nM; with Colo205 (Homo sapiens, COLO 205, Ras WT), 4500 nM; in the test on HT-29, 4100 nM; with H2052 (setting [2]), 5200 nM; with A2780 (Homo sapiens), 2600 nM; in the test on MCF7 (Homo sapiens), 3600 nM. For the same molecule, the IC50 was determined as 4500 nM with cell lines of Table 3 (Homo sapiens), 2700 nM in the test with H358 (setting [3]), 2800 nM in the test with NCI-H460 (Homo sapiens) and 3000 nM with A549 (Homo sapiens). The “CDK inhibitory profile (in words)” value in the test with CDK is “very similar CDK inhibitory profiles to roscovitine”.
Take `CC[C@H](Nc1nc(NCc2cccnc2)c2ncn(C(C)C)c2n1)C(C)(C)O` [Compound C, (3S)-3-{9-isopropyl-6-[(pyridin-3-ylmethyl)-amino]-9H-purin-2-ylamino}-2-methyl-pentan-2-ol]: the IC50 in the test on Saos-2 came to 2500 nM; with NCI-H929 (Homo sapiens), 2400 nM; in the test on H292 (Homo sapiens, NCI-H292, Ras WT), 2300 nM; in the test on MESSA (Homo sapiens, MES-SA), 1600 nM; with MDA-MB-436 (Homo sapiens), 3400 nM; in the test with LoVo (Homo sapiens), 2200 nM. In addition, the IC50 turned out to be 3700 nM with H1650 (setting [1]); 1600 nM with LP-1; 2300 nM in the test with Colo205 (Homo sapiens, COLO 205, Ras WT); 1700 nM in the test with HT-29; 2400 nM in the test on H2052 (setting [2]); 1100 nM in the test on A2780 (Homo sapiens). Also, the IC50 was 1600 nM in the test with MCF7 (Homo sapiens); 2200 nM in the test with cell lines of Table 3 (Homo sapiens); 800 nM in the test on H358 (setting [3]); 1600 nM with HCT 116; 2200 nM with NCI-H460 (Homo sapiens); 1600 nM in the test with A549 (Homo sapiens). The “CDK inhibitory profile (in words)” value with CDK is given as “very similar CDK inhibitory profiles to roscovitine”.
As to `CC[C@H](Nc1nc(NCc2cccnc2)c2ncn(C(C)C)c2n1)[C@@H](C)O` [Compound D, (2R,3S)-3-({9-isopropyl-6-[(pyridin-3-ylmethyl)amino]-9H-purin-2-yl}amino)pentan-2-ol], the IC50 with Saos-2 amounted to 1400 nM; with NCI-H929 (Homo sapiens) it was 800 nM; with H292 (Homo sapiens, NCI-H292, Ras WT), 900 nM; with MESSA (Homo sapiens, MES-SA), 500 nM; with MDA-MB-436 (Homo sapiens), 1000 nM; in the test with LoVo (Homo sapiens), 800 nM. The IC50 in the test on H1650 (setting [1]) is 1200 nM; in the test with LP-1, 500 nM; in the test with Colo205 (Homo sapiens, COLO 205, Ras WT), 800 nM; in the test on HT-29, 1200 nM; in the test with H2052 (setting [2]), 900 nM; in the test with A2780 (Homo sapiens), 400 nM. For the same molecule, the half-inhibitory concentration (IC50) in the test with MCF7 (Homo sapiens) turned out to be 400 nM; with cell lines of Table 3 (Homo sapiens) it was 800 nM; in the test on H358 (setting [3]), 300 nM; with HCT 116 it was 400 nM; with NCI-H460 (Homo sapiens) it was 700 nM; in the test with A549 (Homo sapiens), 500 nM. The “CDK inhibitory profile (in words)” value in the test with CDK is given as “very similar CDK inhibitory profiles to roscovitine”.

One may read the IC50 as the concentration that gives 50% inhibition. Low readings indicate greater potency, high ones weaker potency.

Source of the values: patent publication US20130005747A1, “METHOD FOR SELECTING A CANCER THERAPY” (Cyclacel Limited, priority 2010, published 2013).
